Test: xn = mol fraction of the nth substance listed
Conditions: 101 kPa

OCC(F)(F)F + CCCC[n+]1ccn(C)c1.O=S(=O)([N-]S(=O)(=O)C(F)(F)F)C(F)(F)F
viscosity [mPa·s]
Conditions	x1 = 0.0877	x1 = 0.2626	x1 = 0.4753	x1 = 0.6153	x1 = 0.7568	x1 = 0.8748	x1 = 1
278.15 K	111.4	–	–	–	–	5.37	3.28
283.15 K	84.8	51.2	24.63	14.14	7.74	4.62	2.81
288.15 K	66	40.93	20.36	11.94	6.67	4.02	2.42
293.15 K	52.3	33.18	17.03	–	5.8	3.53	2.11
298.15 K	42.28	–	14.48	8.81	–	3.12	1.84
303.15 K	34.67	22.96	12.43	7.68	4.45	2.78	1.62
308.15 K	28.83	19.43	10.77	6.75	3.94	2.49	1.43
313.15 K	24.27	16.63	–	5.99	3.53	2.25	1.27
318.15 K	20.67	14.38	–	5.35	3.18	2.04	1.13
323.15 K	17.78	12.54	7.38	4.81	2.88	1.85	–
328.15 K	15.43	11.03	6.6	4.34	2.62	1.69	0.925
333.15 K	13.51	–	5.94	3.95	2.4	1.54	0.824

CCCC[n+]1ccn(C)c1.O=S(=O)([N-]S(=O)(=O)C(F)(F)F)C(F)(F)F + OCC(F)(F)F
x2 = 0
Conditions	viscosity [mPa·s]
278.15 K	143
288.15 K	82.4
293.15 K	64.6
298.15 K	51.6
303.15 K	41.9
308.15 K	34.6
313.15 K	28.9
318.15 K	24.4
323.15 K	20.9
328.15 K	18
333.15 K	15.7

— a compilation of properties of binary mixtures (doi:10.1016/j.jct.2013.10.027)
